Reference: patent publication US9676997B2, “Compositions and methods for stabilizing luminogenic substrates” (Promega Corporation, priority 2014, dated 2017)
Where two headings read alike, the source gives them in different places. Values belong to the compound of their own block, whether it stands above or below them.

Assays:
[1] = Stability of 1.25 mM coelenterazine in 50% ethanol and 50% propylene glycol with or without 225 mM ATT, HPLC and Arrhenius plots; type: physicochemical; conditions: for half-life at 1.25 mM: solution of 50% ethanol and 50% propylene glycol
Description: The stability of coelenterazine in the presence and absence of ATT was measured over time at different temperatures. Specifically, 1.25 mM coelenterazine was present in a solution of 50% ethanol and 50% propylene glycol (i.e., the solution without ATT) or a solution of 50% ethanol and 50% propylene glycol with 225 mM ATT (i.e., the solution with ATT). These two solutions were incubated at −20° C., room temperature (RT), 40° C., or 60° C. and analyzed at 0 days, 1 day, 3 days, 7 days, 15 days, and 30 days.
Following incubation, high performance liquid chromatography (HPLC) was utilized to identify the components of the respective solutions at each time point. Specifically, an Agilent 1100 HPLC instrument was used and equipped with a quaternary pump, thermostatted autosampler and column compartment, and a G1311B diode-array detector. The column used was a Synergi-MAX-RP (Phenomenex, Torrance, Calif.) 100 AÅ 50×4.6 2.5 μm. The run on the HPLC was a gradient run with 0.1% TFA in water and acetonitrile. Absorbance was measured at 262 nanometers (nm). Standards of coelenterazine and its known degradants were run to confirm both the retention time and absorbance trace. 5 μl of each solution was injected and the retention time of coelenterazine was 3.9 minutes at room temperature.
The results of the HPLC analysis are shown below in Tables 1 and 2 and FIGS. 1A and 1B, in which the values are reported as relative peak area percentage at 262 nm (i.e., the lamba max of the substrate). […] In each of FIGS. 1A and 1B, diamond is 1.25 mM coelenterazine incubated over time with or without 225 mM ATT, respectively, at −20° C., triangle is 1.25 mM coelenterazine incubated over time with or without 225 mM ATT, respectively, at room temperature (RT), star is 1.25 mM coelenterazine incubated over time with or without 225 mM ATT, respectively, at 40° C., and cross is 1.25 mM coelenterazine incubated over time with or without 225 mM ATT, respectively, at 60° C.
From the HPLC analysis, the half-life of coelenterazine in the presence of ATT at 40° C. and 60° C. was calculated to be 23 days and 5 days, respectively, while the half-life of coelenterazine in the absence of ATT at 40° C. and 60° C. was calculated to be 9.5 days and 2 days, respectively (see Table 3 below).
Additionally, Arrhenius plots were generated for coelenterazine in the presence and absence of ATT to calculate the half-life of coelenterazine at various temperatures. The Arrhenius equation is as follows: […]
In FIG. 7, the slope was −8636.59, the intercept was 24.1199, and R^2 was 0.9983.
In FIG. 8, the slope was −7382.51, the intercept was 21.2598, and R^2 was 0.9570.

[2] = Stability of 2.3 mM furimazine at 37° C. in the dark with or without 200 mM thionucleoside, luminescence with NANOLUC enzyme; type: physicochemical; conditions: 50% propylene glycol:50% ethanol
Description: Specifically, a stock solution of furimazine in 50% propylene glycol:50% ethanol (v/v) was prepared, in which the final concentration of furimazine by absorbance was 4.6 mM. The furimazine stock solution was then diluted 1:1 in 50% propylene glycol:50% ethanol (v/v) to create a control solution without the additives ATT, TAK-0014 and TAK-0002 (i.e., “no additive furimazine” control) and containing 2.3 mM furimazine. 400 mM stock solutions of ATT, TAK-0014 and TAK-0002 were prepared in 50% propylene glycol:50% ethanol (v/v). Each of the ATT, TAK-0014 and TAK-0002 stock solutions was then diluted 1:1 in the 4.6 mM furimazine stock solution to yield solutions containing 200 mM ATT, TAK-0014 or TAK-0002, and 2.3 mM furimazine.
Each sample was separated into multiple amber tubes and incubated at 37° C. in a dark incubator (i.e., in the absence of light). Aliquots were taken from each sample at various time points and stored at −20° C. in the dark (i.e., in the absence of light) until all time points were collected.
To measure luminescence in the aliquots, each aliquot was diluted 1:50 in buffer (NANOGLO buffer, Promega Corporation) to yield 46 μM furimazine. These diluted aliquots were further diluted 1:10 in buffer (NANOGLO buffer, Promega Corporation) to yield 4.6 μM furimazine. 504 of each dilution (i.e., the twice diluted (0.1) aliquots) was mixed with 504, of CO2-independent media+10% fetal bovine serum (FBS) and 0.4 ng/mL luminogenic enzyme (NANOLUC enzyme, Promega Corporation). Luminescence was measured on a luminometer (GLOMAX Multi Plus luminometer, Promega Corporation). Relative light units (RLUs) were normalized for each time point by the RLU value at the 0 days time point. The percent activity from the 0 days time point (i.e., t=0) was plotted against time (days) for each sample as shown in FIG. 15A. In FIG. 15A, B-ATT denoted TAK-0002 and E-ATT denoted TAK-0014.
Error in Table 15 was the standard error from a regression calculation and Fz denoted furimazine, B-ATT denoted TAK-0002, and E-ATT denoted TAK-0014.

[3] = decomposition of coelenterazine

- relative peak area percentage at 262 nm ([1]; 40° C., 0 days): 96.5%
- relative peak area percentage at 262 nm ([1]; 40° C., 1 day): 92.2%
- relative peak area percentage at 262 nm ([1]; 40° C., 3 days): 84.9%
- relative peak area percentage at 262 nm ([1]; 40° C., 15 days): 12.6%
- relative peak area percentage at 262 nm ([1]; 60° C., 0 days): 96.5%
- relative peak area percentage at 262 nm ([1]; 60° C., 1 day): 79.6%
- relative peak area percentage at 262 nm ([1]; 60° C., 3 days): 36.8%
- relative peak area percentage at 262 nm ([1]; RT, 0 days): 96.5%
- relative peak area percentage at 262 nm ([1]; RT, 1 day): 96.1%
- relative peak area percentage at 262 nm ([1]; RT, 3 days): 94.0%
- relative peak area percentage at 262 nm ([1]; RT, 7 days): 91.0%
- relative peak area percentage at 262 nm ([1]; RT, 15 days): 87.4%
- relative peak area percentage at 262 nm ([1]; RT, 30 days): 57.7%
- half-life at 1.25 mM ([1]; 20° C., read-out: T1/2 Calculated from Arrhenius (converted)): 852 h
- half-life at 1.25 mM ([1]; 40° C., read-out: T1/2 Calculated from Arrhenius (converted)): 170 h
- half-life at 1.25 mM ([1]; 40° C., read-out: T1/2 Estimated from graph (converted)): 228 h
- half-life at 1.25 mM ([1]; 60° C., read-out: T1/2 Calculated from Arrhenius (converted)): 40.8 h
- half-life at 1.25 mM ([1]; 60° C., read-out: T1/2 Estimated from graph (converted)): 48 h
- half-life at 1.25 mM ([1]; −20° C., read-out: T1/2 Calculated from Arrhenius (converted)): 46500 h
- relative peak area percentage at 262 nm ([1]; −20° C., 0 days): 96.5%
- relative peak area percentage at 262 nm ([1]; −20° C., 1 day): 97.2%
- relative peak area percentage at 262 nm ([1]; −20° C., 3 days): 96.4%
- relative peak area percentage at 262 nm ([1]; −20° C., 7 days): 96.5%
- relative peak area percentage at 262 nm ([1]; −20° C., 15 days): 96.5%
- relative peak area percentage at 262 nm ([1]; −20° C., 30 days): 86.2%
SMILES: O=c1c(Cc2ccc(O)cc2)nc2c(Cc3ccccc3)[nH]c(-c3ccc(O)cc3)cn1-2 [Coelenterazine (27-957-28), coelenterazine]
- Arrhenius plot intercept [1, 3]: 21.2598
- Arrhenius plot slope [1, 3]: −7382.51

SMILES: O=c1[nH]c(=S)[nH]nc1Cc1ccccc1 [TAK-0002, 6-benzyl-3-sulfanyl-1,2,4-triazin-5-ol]
- stabilization of furimazine against decomposition in the absence of light [2]: stabilized furimazine against decomposition in the absence of light

SMILES: CCc1n[nH]c(=S)[nH]c1=O [TAK-0014]
- stabilization of furimazine against decomposition in the absence of light [2]: stabilized furimazine against decomposition in the absence of light
